# pIC50: −log10 of the molar value. Where two headings read alike, the source gives them in different places.
# What was measured:
# [1] = biological target: T1, His6-TEV-PPARγ-(234-505) (Homo sapiens, UniProt P37231); assay: TR-FRET Assay to Measure Co-R Peptide Recruitment to PPARγ; format: biochemical; conditions: Co-R peptide (SMRT-ID2) recruitment; top final concentration 20 μM; read-out: TR-FRET i-Ag; AC50
# T1 construct: The His6-TEV-PPARγ-(234-505) protein for assay was expressed and purified; TEV cleavage site (N); made in house
# T1 sequence (P37231 234-505): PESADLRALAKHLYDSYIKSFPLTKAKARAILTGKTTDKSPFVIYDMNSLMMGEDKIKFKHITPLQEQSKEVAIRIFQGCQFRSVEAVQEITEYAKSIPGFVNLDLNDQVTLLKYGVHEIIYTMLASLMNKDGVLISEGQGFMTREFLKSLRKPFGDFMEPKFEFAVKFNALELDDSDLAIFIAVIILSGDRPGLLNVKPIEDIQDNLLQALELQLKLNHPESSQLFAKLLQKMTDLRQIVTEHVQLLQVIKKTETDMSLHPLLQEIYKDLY
# Procedure, shortened: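 Corepressor recruitment is measured by adding terbium-labeled anti-His antibody and FITC SMRT-ID2 peptide, at 5 and 200 nM final, after a 20-minute room-temperature protein–compound incubation. After one further hour, signal is converted to percent response between DMSO and 500 nM T0070907 wells.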
# [2] = test system: UM-UC-9 engineered cells; assay: Cell proliferation / short-term viability assay, CellTiter-Glo 144 h; format: cell-based, human; conditions: read-out: CTGlo 144 h UMUC9.5, G150
# Description: Cell Seeding for Proliferation Assay
# UM-UC-9 engineered cells were cultured in Dulbecco's Modified Eagle Medium (DMEM) supplemented with 10% FBS, 25 mM glucose (high glucose), 4.0 mM L-glutamine, 2.0 mM GlutaMAX™, 1.0 mM pyruvate, 1.0% non-essential amino acids (NEAA) in a 95% humidified incubator at 37° C. with 5% CO2. Cell banks of UM-UC-9 engineered assay-ready cells (ARCs) were prepared from a very active growth stage. Vials of ARCs containing approximately 5×10^6 cells per vial were stored in liquid nitrogen vapor phase cryostorage until use.
# For making assay plates, ARCs were recovered from cryostorage, strained in a […] cell strainer, verified for cell viability >90% and counted using a cell counter (Cellometer Auto 1000, Nexelom). Each cell line was seeded into 384-well plates (50 μl/well) using DMEM medium at a density previously determined to be in log growth phase 7 days post-seeding (500 cells/well) using a bulk reagent dispenser (Multidrop™ Combi, Thermo Scientific) with a large-bore plastic-tip cassette pre-sanitized with 70% ethanol. One plate of cells was designated as the pretreatment time-zero (T0) control. Freshly seeded plates were allowed to sit lidded for 30 minutes within a biosafety cabinet for cells to settle distributed within the plate wells uniformly and then placed into an automated incubator (STX110, Liconic) at 37° C., 5% CO2, and 95% relative humidity.
# Preparation of Test Compound in Assay-Ready Plate
# Compounds were stored in a low-temperature sample archive as 10 mM dimethyl sulfoxide (DMSO) solutions at −20° C. under reduced humidity (−45° C. dew point) and protected from light. All samples in the automated archive are stored in 2D barcoded polypropylene tubes, tracked through a laboratory information management system (LIMS), and have been verified for identity and purity by NMR (Chemistry, H3 Biomedicine) and by LCMS (Analytical Chemistry, H3 Biomedicine) at the time of sample registration. Identity by mass matching and purity are again verified at the time of sample request fulfillment by redundant LCMS methods (acidic and basic separation protocols; Analytical Chemistry, H3 Biomedicine). Samples retrieved from low-temperature archive storage were solubilized by heated sonication (Bransonic® Ultrasonic Bath, Branson), transferred (Microlab Starlet, Hamilton) and serially-diluted (Viaflo Assist, Integra) by low-volume liquid handlers, and tracked in LIMS by automation log files to create a ID barcoded master dose-response plate (MDR) to serve as a standard source for all assay-ready plates (ARP) used within an experiment. ARPs prepared by acoustic transfer (ATS-100, EDC) of nL volumes from the MDR source were heat-sealed (PlateLoc, Agilent) and stored at −20° C. prior to use (<7 days from production). Tracking of liquid transfers via acoustic dispenser log files were used to update the LIMS system for all ARP plate maps.
# Measurement of Pretreatment Control Cells and Sample Anti-Proliferative Effects on Treated Cells
# On day 0 (pretreatment cells) or day 7 (treated cells), a cell proliferation assay was performed using an automated robotic assay platform (ACell, High-Res Biosolutions). Cell ARP's were removed from incubation, their plate lid discarded, and using a bulk reagent dispenser (Multidrop™ Combi, Thermo Scientific with a small-bore metal-tip cassette) 25 μL (1/2 volume) of Cell Titer-Glo® 2.0 Cell Viability Assay reagent (Promega) was added to wells of columns 1-23 (column 24 will be used as plate background or positive control). Cell ARP's were incubated at room temperature in an automation hotel position for a total of 1.0 minute while the next plate was delivered to the bulk reagent dispenser and then lid-free cell ARP's were returned to incubate at 37° C. for 2.5 hours. […]
AC50 [1] [nM],SMILES,"pIC50 ([2]; Homo sapiens, UM-UC-9, 144 h)",pIC50 [2]
807,"COc1cc(-c2cc(C(=O)N3CCC(C(=O)NC4COC(C)OC4)CC3)n[nH]2)c(Cl)cn1 (mixture of isomers) [Example 121, 1-[5-(5-Chloro-2-methoxypyridin-4-yl)-1H-pyrazole-3-carbonyl]-N-(2-methyl-1,3-dioxan-5-yl) piperidine-4-carboxamide]",5.65,
44.7,"COc1cc(-c2cc(C(=O)N3CCC(C(=O)NC4CCC(O)(C(F)(F)F)CC4)CC3)n[nH]2)c(Cl)cn1 (mixture of isomers) [Example 144, 1-(5-(5-chloro-2-methoxypyridin-4-yl)-1H-pyrazole-3-carbonyl)-N-(4-hydroxy-4-(trifluoromethyl)cyclohexyl)piperidine-4-carboxamide]",6.48,
688,"COc1cc(-c2cc(C(=O)N3CCC(C(=O)NCC4CC(OC)C4)CC3)n[nH]2)c(Cl)cn1 (mixture of isomers) [Example 145, 1-(5-(5-chloro-2-methoxypyridin-4-yl)-1H-pyrazole-3-carbonyl)-N-((3-methoxycyclobutyl)methyl)piperidine-4-carboxamide]",5.38,
269,"COc1cc(-c2cc(C(=O)N3CCC(C(=O)NC4CC(C)CC(C)(C)C4)CC3)n[nH]2)c(Cl)cn1 (mixture of isomers) [Example 150, 1-(5-(5-chloro-2-methoxypyridin-4-yl)-1H-pyrazole-3-carbonyl)-N-(3,3,5-trimethylcyclohexyl)piperidine-4-carboxamide]",6.11,
447,"COc1cc(-c2cc(C(=O)N3CCC(C(=O)NC4(C)CCC(C)CC4)CC3)n[nH]2)c(Cl)cn1 (mixture of isomers) [Example 163, 1-(5-(5-chloro-2-methoxypyridin-4-yl)-1H-pyrazole-3-carbonyl)-N (1,4-dimethylcyclohexyl)piperidine-4-carboxamide]",6.13,
179,"COc1cc(-c2cc(C(=O)N3CCC(C(=O)NC4[C@@H]5CCC[C@H]4CC5)CC3)n[nH]2)c(F)cn1 (mixture of isomers) [Example 165, N-(bicyclo[3.2.1]octan-8-yl)-1-(5-(5-fluoro-2-methoxypyridin-4-yl)-1H-pyrazole-3-carbonyl)piperidine-4-carboxamide]",6.36,
16.5,"COc1cc(-c2cc(C(=O)N3CCC(C(=O)NCc4cccc(Cl)c4)CC3C)n[nH]2)c(Cl)cn1 (mixture of isomers) [Example 172, 1-(5-(5-chloro-2-methoxypyridin-4-yl)-1H-pyrazole-3-carbonyl)-N-(3-chlorobenzyl)-2-methylpiperidine-4-carboxamide]",6.79,
674,"COc1cc(-c2cc(C(=O)N3CCC(C(=O)NCc4cccc(Cl)c4)C(C)C3)n[nH]2)c(Cl)cn1 (mixture of isomers) [Example 173, 1-(5-(5-chloro-2-methoxypyridin-4-yl)-1H-pyrazole-3-carbonyl)-N-(3-chlorobenzyl)-3-methylpiperidine-4-carboxamide]",5.68,
29.8,"COc1cc(-c2cc(C(=O)N3CCC(C(=O)NCc4cccc(Cl)c4)C(F)C3)n[nH]2)c(Cl)cn1 (mixture of isomers) [Example 177, 1-(5-(5-chloro-2-methoxypyridin-4-yl)-1H-pyrazole-3-carbonyl)-N-(3-chlorobenzyl)-3-fluoropiperidine-4-carboxamide]",7.16,
383,"COc1cc(-c2cc(C(=O)N3CCC(C(=O)NC4CC(C)(F)C4)CC3)n[nH]2)c(Cl)cn1 (mixture of isomers) [Example 246, 1-(5-(5-chloro-2-methoxypyridin-4-yl)-1H-pyrazole-3-carbonyl)-N-(3-fluoro-3-methylcyclobutyl)piperidine-4-carboxamide]",5.91,
565,"COc1cc(-c2cc(C(=O)N3CCC(C(=O)NC4COC(C)C4)CC3)n[nH]2)c(Cl)cn1 (mixture of isomers) [Example 247, 1-(5-(5-chloro-2-methoxypyridin-4-yl)-1H-pyrazole-3-carbonyl)-N-(5-methyltetrahydrofuran-3-yl)piperidine-4-carboxamide]",5.65,
182,"COc1cc(-c2cc(C(=O)N3CCC(C(=O)NC4c5ccccc5OCC4OC)CC3)n[nH]2)c(Cl)cn1 (mixture of isomers) [Example 252, 1-(5-(5-chloro-2-methoxypyridin-4-yl)-1H-pyrazole-3-carbonyl)-N-(3-methoxychroman-4-yl)piperidine-4-carboxamide]",5.94,
18000,"Cc1cc(-c2cc(C(=O)N3CC[C@@H](C(=O)NC4CCC5(CCO5)CC4)CC34CC4)n[nH]2)ncn1 (mixture of isomers) [Example 300-A, (R)-4-(5-(6-methylpyrimidin-4-yl)-1H-pyrazole-3-carbonyl)-N-(1-oxaspiro[3.5]nonan-7-yl)-4-azaspiro[2.5]octane-7-carboxamide]",< 5.40,

SMILES,AC50 [1] [nM],"pIC50 ([2]; Homo sapiens, UM-UC-9, 144 h)",pIC50 [2]
"COc1cc(-c2cc(C(=O)N3CCC(C(=O)NC4CCC(O)(C(F)(F)F)CC4)CC34CC4)n[nH]2)c(F)cn1 (mixture of isomers) [Example 169, (R)-4-(5-(5-fluoro-2-methoxypyridin-4-yl)-1H-pyrazole-3-carbonyl)-N-((1r,4R)-4-hydroxy-4-(trifluoromethyl)cyclohexyl)-4-azaspiro[2.5]octane-7-carboxamide and (S)-4-(5-(5-fluoro-2-methoxypyridin-4-yl)-1H-pyrazole-3-carbonyl)-N-((1r,4S)-4-hydroxy-4-(trifluoromethyl)cyclohexyl)-4-azaspiro[2.5]octane-7-carboxamide]",4.5,,8.68
"COc1cc(-c2cc(C(=O)N3[C@@H]4CC[C@H]3C[C@H](C(=O)NC3CCC5(CCO5)CC3)C4)n[nH]2)c(F)cn1 (mixture of isomers) [Example 297, (1R,3S,5S)-8-[5-(5-fluoro-2-methoxypyridin-4-yl)-1H-pyrazole-3-carbonyl]-N-[1-oxaspiro[3.5]nonan-7-yl]-8-azabicyclo[3.2.1]octane-3-carboxamide]",120,6.42,
COc1cc(-c2cc(C(=O)N3C4CCC3CC(C(=O)NC3CCC(C(F)(F)F)N(C)C3)C4)n[nH]2)c(F)cn1 (mixture of isomers) [Example 306-A],13.9,7.10,
"COc1cc(-c2cc(C(=O)N3[C@@H]4CC[C@H]3C[C@H](C(=O)NC3CCC5(CC3)OCC5(F)F)C4)n[nH]2)c(F)cn1 (mixture of isomers) [Example 307, (1R,3s,5S)—N-(3,3-difluoro-1-oxaspiro[3.5]nonan-7-yl)-8-(5-(5-fluoro-2-methoxypyridin-4-yl)-1H-pyrazole-3-carbonyl)-8-azabicyclo[3.2.1]octane-3-carboxamide]",22.1,6.76,
